Test results reported in ChEMBL document CHEMBL1201862, “PubChem BioAssay data set” (2004).
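Five concentrations, 48 hours, 96-well plates. The concentration for 50% growth inhibition is given as GI50.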 Activity calls are given as the source filed them. Rule as the data show it: active = GI50 up to about 1.1 µM and inactive = higher.

Key:
Assay in all cases: inhibition of tumour cell growth, NCI panel, 48 h
MCF7 = test system: MCF7
TK-10 = test system: TK-10
PC-3 = test system: PC-3
M14 = test system: M14
NCI/ADR-RES = test system: NCI/ADR-RES
CCRF-CEM = test system: CCRF-CEM
MDA-MB-435 = test system: MDA-MB-435
SR = test system: SR
IGROV-1 = test system: IGROV-1
OVCAR-5 = test system: OVCAR-5
LOX IMVI = test system: LOX IMVI
HOP-62 = test system: HOP-62
RPMI-8226 = test system: RPMI-8226
DU-145 = test system: DU-145
HT-29 = test system: HT-29
NCI-H522 = test system: NCI-H522
SNB-75 = test system: SNB-75
EKVX = test system: EKVX
OVCAR-4 = test system: OVCAR-4

Row | Structure (SMILES) | GI50 (MCF7) | GI50 (TK-10) | GI50 (PC-3) | GI50 (M14) | GI50 (NCI/ADR-RES) | GI50 (CCRF-CEM) | GI50 (MDA-MB-435) | GI50 (SR) | GI50 (IGROV-1) | GI50 (OVCAR-5) | GI50 (LOX IMVI) | GI50 (HOP-62) | GI50 (RPMI-8226) | GI50 (DU-145) | GI50 (HT-29) | GI50 (NCI-H522) | GI50 (SNB-75) | GI50 (EKVX) | GI50 (OVCAR-4)
1 | C=C1C(=O)O[C@H]2C(=O)[C@H](C)CCC/C(C)=C/CC[C@@]3(C)O[C@@H]3C[C@@H]12 | 3.02 µM (inactive) | 0.135 µM (active) | 6.76 µM (inactive) | 1.67 µM (inactive) | 14 µM (inactive) | 1.18 µM (inactive) | 1.98 µM (inactive) | 2.45 µM (inactive) | 2.76 µM (inactive) | 5.6 µM (inactive) | 1.49 µM (inactive) | 11.6 µM (inactive) | 2.25 µM (inactive) | 2.56 µM (inactive) | 1.9 µM (inactive) | 1.67 µM (inactive) | – | – | –
2 | COc1ccc2c(c1)[n+]([O-])c1cc(C#N)ccc1[n+]2[O-] | 4.84 µM (inactive) | 3.21 µM (inactive) | 2.43 µM (inactive) | 0.33 µM (active) | 15.5 µM (inactive) | – | 2.25 µM (inactive) | 4.08 µM (inactive) | 4.88 µM (inactive) | 15.2 µM (inactive) | 3.3 µM (inactive) | 2.11 µM (inactive) | – | 1.1 µM (active) | 2.87 µM (inactive) | 5.62 µM (inactive) | 4.41 µM (inactive) | 24 µM (inactive) | 12.4 µM (inactive)
3 | CCOC(=O)c1csc(C(CSCc2ccc(OC)cc2)N2C(=O)c3ccccc3C2=O)n1 (stereo not drawn) | 73.5 µM (inactive) | > 100 µM (inactive) | > 100 µM (inactive) | > 100 µM (inactive) | > 100 µM (inactive) | 35.9 µM (inactive) | 54.8 µM (inactive) | 26.5 µM (inactive) | > 100 µM (inactive) | > 100 µM (inactive) | 37.6 µM (inactive) | > 100 µM (inactive) | 38 µM (inactive) | > 100 µM (inactive) | 87.7 µM (inactive) | 23.5 µM (inactive) | – | > 100 µM (inactive) | > 100 µM (inactive)
4 | CNNC1=NS(=O)(=O)c2cc(C#N)c(Cl)cc2S1 | 0.00303 µM (active) | > 10 µM (inactive) | > 10 µM (inactive) | > 10 µM (inactive) | > 10 µM (inactive) | > 10 µM (inactive) | > 10 µM (inactive) | – | > 10 µM (inactive) | > 10 µM (inactive) | > 10 µM (inactive) | > 10 µM (inactive) | > 10 µM (inactive) | > 10 µM (inactive) | > 10 µM (inactive) | > 10 µM (inactive) | > 10 µM (inactive) | > 10 µM (inactive) | > 10 µM (inactive)
5 | CC[N+]1(C)CCC(O)(c2ccc(C)cc2)C(C(=O)c2ccc(C)cc2)C1 (stereo not drawn) | 16.4 µM (inactive) | 20.2 µM (inactive) | > 100 µM (inactive) | 44.8 µM (inactive) | > 100 µM (inactive) | 22 µM (inactive) | 69.2 µM (inactive) | 16.2 µM (inactive) | > 100 µM (inactive) | 31 µM (inactive) | – | > 100 µM (inactive) | 10.9 µM (inactive) | > 100 µM (inactive) | 42.7 µM (inactive) | 23.7 µM (inactive) | – | > 100 µM (inactive) | 34.4 µM (inactive)
6 | CC1=C(C(=O)OCc2ccncc2)C(C2=C(C)SCCS2)C(C(=O)OCc2ccncc2)=C(C)N1 | 20.8 µM (inactive) | 40.8 µM (inactive) | 20.9 µM (inactive) | 28.7 µM (inactive) | 37.4 µM (inactive) | 17.7 µM (inactive) | 17.8 µM (inactive) | 33.6 µM (inactive) | 62.5 µM (inactive) | 40.7 µM (inactive) | 18.8 µM (inactive) | 21.7 µM (inactive) | – | 29.4 µM (inactive) | 17.9 µM (inactive) | 22.8 µM (inactive) | 15.8 µM (inactive) | 21.2 µM (inactive) | 38.3 µM (inactive)
7 | O=C(O)C(SC1=NC(=O)C2(NN1)c1ccccc1-c1ccccc12)SC1=NC(=O)C2(NN1)c1ccccc1-c1ccccc12 | 8.67 µM (inactive) | > 10 µM (inactive) | > 10 µM (inactive) | > 10 µM (inactive) | > 10 µM (inactive) | > 10 µM (inactive) | > 10 µM (inactive) | – | > 10 µM (inactive) | > 10 µM (inactive) | 9.02 µM (inactive) | > 10 µM (inactive) | 7.33 µM (inactive) | > 10 µM (inactive) | > 10 µM (inactive) | > 10 µM (inactive) | 2.74 µM (inactive) | 9.64 µM (inactive) | > 10 µM (inactive)
8 | CCOC(=O)Oc1ccc2c(c1)c(=O)c1c(NCCCN(CC)CC)ccc3nnn2c31 | 0.929 µM (active) | 2.79 µM (inactive) | 0.303 µM (active) | 12.3 µM (inactive) | 7.76 µM (inactive) | 0.889 µM (active) | 5.45 µM (inactive) | 1.57 µM (inactive) | 5.36 µM (inactive) | 16.6 µM (inactive) | 2.52 µM (inactive) | 1.75 µM (inactive) | 2.17 µM (inactive) | 0.951 µM (active) | 2.55 µM (inactive) | 1.56 µM (inactive) | – | 10.7 µM (inactive) | 0.33 µM (active)
9 | O=C(Nc1nc(C23CC4CC(CC(C4)C2)C3)cs1)c1cc2c(ccc3ccccc32)oc1=O | > 100 µM (inactive) | > 100 µM (inactive) | > 100 µM (inactive) | – | > 100 µM (inactive) | > 100 µM (inactive) | > 100 µM (inactive) | > 100 µM (inactive) | > 100 µM (inactive) | > 100 µM (inactive) | > 100 µM (inactive) | > 100 µM (inactive) | > 100 µM (inactive) | > 100 µM (inactive) | > 100 µM (inactive) | > 100 µM (inactive) | – | > 100 µM (inactive) | > 100 µM (inactive)
10 | O=C1C(/N=N/c2ccc(-c3nc4ccccc4o3)cc2)NC(=S)N1c1ccccc1 (stereo not drawn) | 33.2 µM (inactive) | 70 µM (inactive) | > 100 µM (inactive) | 62.7 µM (inactive) | 73.5 µM (inactive) | 0.0479 µM (active) | 60.7 µM (inactive) | 28.5 µM (inactive) | 57.3 µM (inactive) | > 100 µM (inactive) | 35.5 µM (inactive) | > 100 µM (inactive) | – | 37.4 µM (inactive) | > 100 µM (inactive) | 60.4 µM (inactive) | 62.4 µM (inactive) | 49.3 µM (inactive) | 82 µM (inactive)
11 | C=CCn1c(=O)c2ccccc2[n+]2c(C)c(C(=O)OCC)sc12 | > 100 µM (inactive) | > 100 µM (inactive) | > 100 µM (inactive) | > 100 µM (inactive) | > 100 µM (inactive) | > 100 µM (inactive) | > 100 µM (inactive) | > 100 µM (inactive) | > 100 µM (inactive) | > 100 µM (inactive) | > 100 µM (inactive) | 42.4 µM (inactive) | > 100 µM (inactive) | > 100 µM (inactive) | > 100 µM (inactive) | > 100 µM (inactive) | – | > 100 µM (inactive) | > 100 µM (inactive)
12 | Nc1nc2c(ncn2C2C=CC(COS(N)(=O)=O)C2)c(=O)[nH]1 (stereo not drawn) | > 100 µM (inactive) | > 100 µM (inactive) | > 100 µM (inactive) | > 100 µM (inactive) | > 100 µM (inactive) | > 100 µM (inactive) | > 100 µM (inactive) | > 100 µM (inactive) | > 100 µM (inactive) | > 100 µM (inactive) | > 100 µM (inactive) | > 100 µM (inactive) | > 100 µM (inactive) | > 100 µM (inactive) | > 100 µM (inactive) | – | > 100 µM (inactive) | > 100 µM (inactive) | > 100 µM (inactive)
13 | O=C1C=C(NCCOCCO)C(=O)c2c(O)ccc(O)c21 | 16 µM (inactive) | > 100 µM (inactive) | 28.1 µM (inactive) | 22.5 µM (inactive) | 23.1 µM (inactive) | 27.4 µM (inactive) | 18.2 µM (inactive) | – | 36.7 µM (inactive) | > 100 µM (inactive) | 15.6 µM (inactive) | 58.6 µM (inactive) | 22.7 µM (inactive) | 99.3 µM (inactive) | 20.4 µM (inactive) | 24 µM (inactive) | 61.7 µM (inactive) | – | 18 µM (inactive)
14 | N=C(N)NS(=O)(=O)c1ccc(NNc2c3ccccc3nc3c(C(=O)Nc4ccc(S(=O)(=O)Nc5ncccn5)cc4)cccc23)cc1 | 31.5 µM (inactive) | – | 33.7 µM (inactive) | 20.4 µM (inactive) | > 100 µM (inactive) | 30.8 µM (inactive) | 43.2 µM (inactive) | > 10 µM (inactive) | 18.2 µM (inactive) | 74.8 µM (inactive) | – | 45.3 µM (inactive) | 33.3 µM (inactive) | 60.1 µM (inactive) | 22.9 µM (inactive) | 19.3 µM (inactive) | > 100 µM (inactive) | 31.8 µM (inactive) | 29.2 µM (inactive)
15 | CC(=O)c1cccc(NC(=O)C(=O)C(c2cnc3ccc([N+](=O)[O-])cc3n2)[N+](=O)[O-])c1 (stereo not drawn) | > 100 µM (inactive) | > 100 µM (inactive) | 42.9 µM (inactive) | 69 µM (inactive) | 95.5 µM (inactive) | 36.4 µM (inactive) | > 100 µM (inactive) | 52.1 µM (inactive) | > 100 µM (inactive) | > 100 µM (inactive) | > 100 µM (inactive) | > 100 µM (inactive) | > 100 µM (inactive) | > 100 µM (inactive) | > 100 µM (inactive) | – | > 100 µM (inactive) | > 100 µM (inactive) | > 100 µM (inactive)
